# Results from patent publication US7384629B2, “Biological control of nematodes with Hirsutella minnesotensis” (Regents of the University of Minnesota, priority 2000, dated 2008).
# System: Hirsutella rhossiliensis
# Assay: Effect of carbon source on growth, sporulation and spore germination
# Conditions: for Growth mm-in-diam, on agar: carbon source 4 g/liter carbon; for Growth mm-in-diam, on agar / Sporulation 10^3/cm^2, on agar / growth in liquid culture (visual rating): 5 weeks; for Sporulation 10^3/cm^2, on agar / growth in liquid culture (visual rating) / Spore germination %, on agar: carbon source; for Spore germination %, on agar: after incubation for 24 hr
Compound,"Growth mm-in-diam, on agar (isolate ATCC46487)","Growth mm-in-diam, on agar (isolate JA16-1)","Growth mm-in-diam, on agar (isolate OWVT-1)","Sporulation 10^3/cm^2, on agar (isolate ATCC46487)",growth in liquid culture (visual rating) (isolate ATCC46487),"Spore germination %, on agar (isolate ATCC46487)","Sporulation 10^3/cm^2, on agar (isolate JA16-1)","Spore germination %, on agar (isolate JA16-1)","Sporulation 10^3/cm^2, on agar (isolate OWVT-1)",growth in liquid culture (visual rating) (isolate OWVT-1),"Spore germination %, on agar (isolate OWVT-1)",growth in liquid culture (visual rating) (isolate JA16-1)
O=C(CO)[C@@H](O)[C@H](O)[C@H](O)CO [D(−)fructose],16.2 mm-in-diam,0.0 mm-in-diam,8.5 mm-in-diam,50.2 10^3/cm^2,I,45.6%,0.0 10^3/cm^2,34.4%,36.8 10^3/cm^2,I,50.0%,
OC[C@@H](O)[C@@H](O)[C@H](O)[C@@H](O)CO [D-sorbitol],30.3 mm-in-diam,18.3 mm-in-diam,11.7 mm-in-diam,64.7 10^3/cm^2,"III (III = hyphae growth or colonies form a pellet, less than 2.5 ml)",57.8%,4.2 10^3/cm^2,67.8%,126.0 10^3/cm^2,,56.7%,I
O=C[C@H](O)[C@@H](O)[C@H](O)[C@H](O)CO [D-(+)-glucose],28.3 mm-in-diam,6.5 mm-in-diam,8.0 mm-in-diam,7.7 10^3/cm^2,I,61.1%,28.1 10^3/cm^2,65.5%,30.7 10^3/cm^2,I,56.7%,
O=C(CO)[C@@H](O)[C@H](O)[C@@H](O)CO [L-(−)-sorbose],7.8 mm-in-diam,0.0 mm-in-diam,6.7 mm-in-diam,62.5 10^3/cm^2,I,35.6%,0.0 10^3/cm^2,13.3%,7.4 10^3/cm^2,I,26.7%,
Inulin,36.7 mm-in-diam,20.0 mm-in-diam,25.2 mm-in-diam,3.5 10^3/cm^2,,54.4%,10.4 10^3/cm^2,72.2%,4.2 10^3/cm^2,,50.0%,I
OC[C@H]1O[C@H](O[C@H]2O[C@H](CO)[C@@H](O)[C@H](O)[C@H]2O)[C@H](O)[C@@H](O)[C@@H]1O [D(+) trehalose],36.5 mm-in-diam,18.3 mm-in-diam,30.2 mm-in-diam,172.6 10^3/cm^2,,60.0%,5.2 10^3/cm^2,68.9%,49.2 10^3/cm^2,,62.2%,
OC[C@H]1O[C@@H](O[C@H]2[C@H](O)[C@@H](O)[C@H](O)O[C@@H]2CO)[C@H](O)[C@@H](O)[C@@H]1O [D-(+)-cellubiose],33.0 mm-in-diam,10.0 mm-in-diam,,13.8 10^3/cm^2,I,58.9%,88.8 10^3/cm^2,52.2%,23.9 10^3/cm^2,I,52.2%,I
OC[C@H]1O[C@H](OCC2O[C@@H](O)[C@H](O)[C@@H](O)[C@@H]2O)[C@H](O)[C@@H](O)[C@H]1O (stereo partly shown) [Melibiose],35.0 mm-in-diam,11.8 mm-in-diam,18.2 mm-in-diam,41.9 10^3/cm^2,"III (III = hyphae growth or colonies form a pellet, less than 2.5 ml)",40.0%,13.1 10^3/cm^2,61.7%,33.7 10^3/cm^2,,48.9%,I
OC[C@H]1O[C@H](O[C@H]2[C@H](O)[C@@H](O)[C@H](O)O[C@@H]2CO)[C@H](O)[C@@H](O)[C@@H]1O [Maltose monohydrate],34.3 mm-in-diam,11.0 mm-in-diam,13.7 mm-in-diam,21.9 10^3/cm^2,I,36.7%,26.6 10^3/cm^2,64.5%,34.2 10^3/cm^2,I,46.7%,I
O=C(O)CC(O)(CC(=O)O)C(=O)O [Citric acid],11.3 mm-in-diam,0.0 mm-in-diam,9.0 mm-in-diam,39.5 10^3/cm^2,,50.0%,7.4 10^3/cm^2,38.9%,87.5 10^3/cm^2,,52.2%,
O=C[C@H](O)[C@@H](O)[C@H](O)CO [D(+)xylose],0.0 mm-in-diam,0.0 mm-in-diam,0.0 mm-in-diam,0.0 10^3/cm^2,,21.1%,2.5 10^3/cm^2,24.4%,0.0 10^3/cm^2,,26.7%,
O=C[C@H](O)[C@H](O)[C@H](O)CO [D(−) ribose],15.5 mm-in-diam,0.0 mm-in-diam,8.0 mm-in-diam,61.3 10^3/cm^2,,48.9%,0.0 10^3/cm^2,15.5%,1.4 10^3/cm^2,,45.6%,
O.OC[C@H]1O[C@@H](O[C@H]2[C@H](O)[C@@H](O)[C@@H](O)O[C@@H]2CO)[C@H](O)[C@@H](O)[C@H]1O [a-lactose monohydrate],35.8 mm-in-diam,15.8 mm-in-diam,9.8 mm-in-diam,2.4 10^3/cm^2,I,56.7%,37.3 10^3/cm^2,68.9%,17.4 10^3/cm^2,I,42.2%,I
O=C[C@@H](O)[C@H](O)[C@H](O)CO [D-(−)-arabinose],18.0 mm-in-diam,0.0 mm-in-diam,9.7 mm-in-diam,22.3 10^3/cm^2,,48.9%,27.0 10^3/cm^2,32.2%,35.2 10^3/cm^2,,40.0%,
